Reference: US20200061062A1, “INHIBITORS OF HUMAN PHOSPHATIDYLINOSITOL 3-KINASE DELTA” (ICOS Corporation, priority 2000, published 2020)

Key:
PI3Kγ [1] = target: T1, PI3Kγ (Homo sapiens, UniProt P48736); assay: Biochemical assay of PI3K potency and selectivity using 20 μM ATP, Gamma; conditions: for Gamma/Delta Ratio: ratio of IC50 values
T1 construct: His tag (pFastbac HTb vector) (N); FLAG (N); made in house; host or cells: Sf21 insect cells (baculovirus)

T cell proliferation = assay: Stimulated T cell proliferation (Mouse TCE Stim, Table 4); assay type: cell-based; conditions: stimulated T cell proliferation, read-out: Mouse TCE Stim (EC50)
PI3Kγ [2] = target: T1, PI3Kγ; assay: Biochemical assay using 200 μM ATP, Gamma
Description: (§1) PI3Kδ catalyzes a phosphotransfer from γ-[^32P]ATP to PIP2/PS liposomes at the D3′ position of the PIP2 lipid inositol ring. This reaction is MgCl2 dependent and is quenched in high molarity potassium phosphate buffer pH 8.0 containing 30 mM EDTA. […] The reaction products (and all unlabelled products) are transferred to a 96-well, prewetted PVDF filter plate, filtered, and washed in high molarity potassium phosphate. Scintillant is added to the dried wells and the incorporated radioactivity is quantitated.
(§2) This dilution established a final concentration of 200 μM ATP in the reaction volume. The reaction was stopped with 150 μL quench buffer (1.0 M potassium phosphate pH 8.0, 30 mM EDTA). A portion of the quenched solution (180 μL) was then transferred to a PVDF filter plate (Millipore # MAIP NOB prewetted with sequential 200 μL washes of 100% methanol, water, and finally 1.0 M potassium phosphate pH 8.0 wash buffer).
(§3) The PVDF filter plate was aspirated under moderate vacuum (2-5 mm Hg), washed with 5×200 μL of wash buffer, and then dried by aspiration. The filter was subsequently blotted, allowed to air dry completely, and inserted into a Wallac counting cassette with 50 μL of Ecoscint scintillation cocktail added per well.
(§4) Subsequent selectivity assays were done similarly using the same 3× substrate stocks except they contained 0.05 mCi/mL γ[^32P]ATP and 3 mM PIP2. Subsequent selectivity assays also used the same 3× enzyme stocks, except they now contained 3 nM of any given PI3K isoform.
(§5) For all selectivity assays, the test compounds were weighed out and dissolved into 10-50 mM stocks in 100% DMSO (depending on their respective solubilities) and stored at −20° C. […] From these dilutions, 20 μL was added into the assay wells alongside water blanks used for the enzyme (positive) control and the no enzyme (background) control.
(§6) This selectivity protocol is identical to that described above, except the 3× stock ATP concentration was 600 μM.

human neutrophils [3] = assay: fMLP-induced human neutrophil migration; assay type: cell-based
Description: Neutrophils have the intrinsic capacity to migrate through tissues, and are one of the first cell types to arrive at the sites of inflammation or tissue injury. The effect of D-000 on neutrophil migration towards a concentration gradient of fMLP was measured. The day before the migration assays were performed, 6-well plates were coated with recombinant ICAM-1/Fc fusion protein (Van der Vieren et al., Immunity, 3:683-690 (1995)) (25 μg/mL in bicarbonate buffer, pH 9.3) and left overnight at 4° C. After washing, 1% agarose solution, in RPMI-1640 with 0.5% bovine serum albumin (BSA), was added to wells with or without an inhibitor, and plates were placed into a refrigerator before punching holes in the gelled agarose to create plaques (1 central hole surrounded by 6 peripheral ones per well).
Human neutrophils were obtained as described above, and resuspended in RPMI medium supplemented with 0.5% BSA at 5×10^6 cells/mL. After combining equal volumes of neutrophil suspension and medium (either with DMSO or a serial dilution of the test compound in DMSO), neutrophils were aliquoted into the peripheral holes, while the central hole received fMLP (5 μM). Plates were incubated at 37° C. in the presence of 5% CO2 for 4 hr, followed by termination of migration by the addition of 1% glutaraldehyde solution in D-PBS. After removing the agarose layer, wells were washed with distilled water and dried.
Analysis of neutrophil migration was conducted on a Nikon DIAPHOT® inverted microscope (1× objective) video workstation using the NIH 1.61 program. Using Microsoft Excel and Table Curve 4 (SSPS Inc., Chicago Ill.) programs, a migration index was obtained for each of the studied conditions. Migration index was defined as the area under a curve representing number of migrated neutrophils versus the net distance of migration per cell.
Using the methods described in Examples 3-5, above, compounds of the invention were tested for inhibitory activity and potency in assays of stimulated B and T cell proliferation, neutrophil (PMN) migration, and neutrophil (PMN) elastase release. In Table 4, the values shown are effective concentrations of the compound (EC50; μM). Where no value is given, no assay was performed.

human neutrophils [4] = assay: Elastase exocytosis from neutrophils (fMLP-induced); assay type: cell-based; conditions: for EC50: neutrophil (PMN) elastase release
Procedure, shortened: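 Human blood neutrophils (Ficoll-Hypaque) treated with compound or DMSO, then stimulated 90 min at 37 °C with 1 μM fMLP plus 0.01 mg/mL cytochalasin B, 1.0 μM NaN3 and 5 μg/mL L-methionine. Supernatant elastase read at 410 nm over 2 h on MeO-suc-AAPV-pNA, normalized to uninhibited; EC50 in μM.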

[5] = tested on: Murine splenocytes (Balb/c); assay: B cell proliferation in response to cell surface IgM stimulation; assay type: cell-based; conditions: Mus musculus, Splenocyte; for EC50: stimulated B cell proliferation, read-out: Mouse BCR Stim (EC50)
Procedure, shortened: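 Balb/c splenocytes (2×10^5/well, 10% FBS/RPMI) preincubated 30-60 min with inhibitor, then stimulated with goat F(ab′)2 anti-mouse IgM μ-chain at 25 μg/mL final. Cultured 3 days at 37° C., [^3H]-thymidine pulsed for final 4 h; incorporation counted as CPM. Values are EC50 (μM).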

PI3Kα = target: T2, PI3Kα (Homo sapiens, UniProt P42336); assay: Biochemical assay using 200 μM ATP, Alpha
T2 construct: His tag (pFastbac HTb vector) (N); FLAG; made in house; host or cells: Sf21 insect cells (baculovirus)
T2 sequence (P42336 whole entry): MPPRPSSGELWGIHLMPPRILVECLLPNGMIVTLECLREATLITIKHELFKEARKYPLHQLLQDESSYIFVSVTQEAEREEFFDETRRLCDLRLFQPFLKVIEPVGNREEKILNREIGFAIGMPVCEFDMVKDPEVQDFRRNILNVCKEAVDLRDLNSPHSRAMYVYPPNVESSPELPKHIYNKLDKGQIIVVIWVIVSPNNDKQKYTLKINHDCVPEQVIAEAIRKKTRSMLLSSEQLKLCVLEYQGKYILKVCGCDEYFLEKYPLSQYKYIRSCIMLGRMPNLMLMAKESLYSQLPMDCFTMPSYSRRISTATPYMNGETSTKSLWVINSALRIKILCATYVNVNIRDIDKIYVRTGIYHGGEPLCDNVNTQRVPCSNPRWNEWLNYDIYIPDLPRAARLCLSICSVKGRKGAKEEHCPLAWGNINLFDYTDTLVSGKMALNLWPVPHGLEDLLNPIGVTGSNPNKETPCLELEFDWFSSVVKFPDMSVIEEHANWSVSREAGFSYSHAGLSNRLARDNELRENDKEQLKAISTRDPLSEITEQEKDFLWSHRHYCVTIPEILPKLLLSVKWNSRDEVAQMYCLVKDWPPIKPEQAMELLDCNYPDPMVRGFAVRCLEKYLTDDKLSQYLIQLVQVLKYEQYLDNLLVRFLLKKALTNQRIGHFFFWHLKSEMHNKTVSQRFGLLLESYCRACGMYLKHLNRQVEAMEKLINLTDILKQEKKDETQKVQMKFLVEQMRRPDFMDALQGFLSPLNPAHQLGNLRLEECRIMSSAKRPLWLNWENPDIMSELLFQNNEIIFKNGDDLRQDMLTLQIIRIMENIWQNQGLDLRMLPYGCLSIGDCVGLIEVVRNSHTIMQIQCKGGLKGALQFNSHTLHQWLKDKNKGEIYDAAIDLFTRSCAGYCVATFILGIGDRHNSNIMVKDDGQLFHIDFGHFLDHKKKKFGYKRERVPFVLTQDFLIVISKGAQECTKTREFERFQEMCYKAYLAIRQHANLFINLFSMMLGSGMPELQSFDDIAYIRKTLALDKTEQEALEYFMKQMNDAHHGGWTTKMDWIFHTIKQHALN
T2 sequence (P27986 whole entry partner): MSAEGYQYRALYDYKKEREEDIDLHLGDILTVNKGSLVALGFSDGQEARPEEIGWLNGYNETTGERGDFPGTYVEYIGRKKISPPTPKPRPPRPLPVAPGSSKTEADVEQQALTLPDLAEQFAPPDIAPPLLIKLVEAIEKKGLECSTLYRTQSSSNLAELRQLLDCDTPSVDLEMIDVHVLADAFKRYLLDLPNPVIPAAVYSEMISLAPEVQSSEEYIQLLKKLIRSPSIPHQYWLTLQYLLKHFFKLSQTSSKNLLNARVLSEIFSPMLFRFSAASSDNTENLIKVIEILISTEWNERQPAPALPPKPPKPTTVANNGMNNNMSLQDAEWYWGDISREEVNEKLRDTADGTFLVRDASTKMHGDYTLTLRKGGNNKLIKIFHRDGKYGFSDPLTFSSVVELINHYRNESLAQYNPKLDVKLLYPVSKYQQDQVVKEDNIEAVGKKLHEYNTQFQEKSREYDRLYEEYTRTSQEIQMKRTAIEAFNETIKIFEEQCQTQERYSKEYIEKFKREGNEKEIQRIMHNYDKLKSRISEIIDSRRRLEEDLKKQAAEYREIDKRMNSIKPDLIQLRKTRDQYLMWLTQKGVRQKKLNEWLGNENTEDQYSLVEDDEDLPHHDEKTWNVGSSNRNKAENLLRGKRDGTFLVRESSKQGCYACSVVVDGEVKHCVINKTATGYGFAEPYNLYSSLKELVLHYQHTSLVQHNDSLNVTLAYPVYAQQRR
Description: as §1, §2, §3, §4, §5, §6

PI3Kβ = target: T3, PI3Kβ (Homo sapiens, UniProt P42338); assay: Biochemical assay using 200 μM ATP, Beta
T3 construct: His tag (pFastbac HTa vector) (N); FLAG (N); made in house; host or cells: Sf21 insect cells (baculovirus)
T3 sequence (P42338 whole entry): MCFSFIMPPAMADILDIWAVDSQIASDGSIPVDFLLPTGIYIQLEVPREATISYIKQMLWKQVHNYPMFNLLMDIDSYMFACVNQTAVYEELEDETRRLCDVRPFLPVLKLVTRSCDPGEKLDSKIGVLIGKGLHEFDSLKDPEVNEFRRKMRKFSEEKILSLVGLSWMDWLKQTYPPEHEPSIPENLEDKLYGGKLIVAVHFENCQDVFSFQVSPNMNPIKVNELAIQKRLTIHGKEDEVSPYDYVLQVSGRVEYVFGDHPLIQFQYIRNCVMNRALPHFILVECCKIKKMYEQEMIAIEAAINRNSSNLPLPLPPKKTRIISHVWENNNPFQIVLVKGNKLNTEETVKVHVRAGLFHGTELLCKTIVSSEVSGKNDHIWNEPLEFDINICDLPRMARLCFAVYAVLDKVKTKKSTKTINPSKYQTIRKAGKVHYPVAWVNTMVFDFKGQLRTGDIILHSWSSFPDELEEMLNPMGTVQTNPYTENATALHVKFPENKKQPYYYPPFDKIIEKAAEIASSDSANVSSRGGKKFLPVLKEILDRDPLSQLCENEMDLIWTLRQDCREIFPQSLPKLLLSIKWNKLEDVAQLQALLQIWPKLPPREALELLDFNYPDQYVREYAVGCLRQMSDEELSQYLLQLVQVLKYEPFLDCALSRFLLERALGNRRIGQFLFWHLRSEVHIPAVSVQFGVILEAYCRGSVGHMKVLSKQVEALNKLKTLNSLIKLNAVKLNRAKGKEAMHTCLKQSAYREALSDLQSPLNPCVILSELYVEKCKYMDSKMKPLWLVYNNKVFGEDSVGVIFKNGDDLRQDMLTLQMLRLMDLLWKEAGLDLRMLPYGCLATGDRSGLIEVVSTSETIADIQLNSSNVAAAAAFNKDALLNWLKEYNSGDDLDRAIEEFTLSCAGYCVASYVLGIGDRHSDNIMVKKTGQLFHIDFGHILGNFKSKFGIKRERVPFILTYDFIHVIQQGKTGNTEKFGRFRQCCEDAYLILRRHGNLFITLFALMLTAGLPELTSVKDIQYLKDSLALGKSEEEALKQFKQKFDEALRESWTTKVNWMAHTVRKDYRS
T3 sequence (P27986 whole entry partner): as the sequence (P27986 whole entry partner) above

[6] = neutrophil (PMN) migration, read-out: Human PMN Migration (EC50)

T1 sequence (P48736 whole entry): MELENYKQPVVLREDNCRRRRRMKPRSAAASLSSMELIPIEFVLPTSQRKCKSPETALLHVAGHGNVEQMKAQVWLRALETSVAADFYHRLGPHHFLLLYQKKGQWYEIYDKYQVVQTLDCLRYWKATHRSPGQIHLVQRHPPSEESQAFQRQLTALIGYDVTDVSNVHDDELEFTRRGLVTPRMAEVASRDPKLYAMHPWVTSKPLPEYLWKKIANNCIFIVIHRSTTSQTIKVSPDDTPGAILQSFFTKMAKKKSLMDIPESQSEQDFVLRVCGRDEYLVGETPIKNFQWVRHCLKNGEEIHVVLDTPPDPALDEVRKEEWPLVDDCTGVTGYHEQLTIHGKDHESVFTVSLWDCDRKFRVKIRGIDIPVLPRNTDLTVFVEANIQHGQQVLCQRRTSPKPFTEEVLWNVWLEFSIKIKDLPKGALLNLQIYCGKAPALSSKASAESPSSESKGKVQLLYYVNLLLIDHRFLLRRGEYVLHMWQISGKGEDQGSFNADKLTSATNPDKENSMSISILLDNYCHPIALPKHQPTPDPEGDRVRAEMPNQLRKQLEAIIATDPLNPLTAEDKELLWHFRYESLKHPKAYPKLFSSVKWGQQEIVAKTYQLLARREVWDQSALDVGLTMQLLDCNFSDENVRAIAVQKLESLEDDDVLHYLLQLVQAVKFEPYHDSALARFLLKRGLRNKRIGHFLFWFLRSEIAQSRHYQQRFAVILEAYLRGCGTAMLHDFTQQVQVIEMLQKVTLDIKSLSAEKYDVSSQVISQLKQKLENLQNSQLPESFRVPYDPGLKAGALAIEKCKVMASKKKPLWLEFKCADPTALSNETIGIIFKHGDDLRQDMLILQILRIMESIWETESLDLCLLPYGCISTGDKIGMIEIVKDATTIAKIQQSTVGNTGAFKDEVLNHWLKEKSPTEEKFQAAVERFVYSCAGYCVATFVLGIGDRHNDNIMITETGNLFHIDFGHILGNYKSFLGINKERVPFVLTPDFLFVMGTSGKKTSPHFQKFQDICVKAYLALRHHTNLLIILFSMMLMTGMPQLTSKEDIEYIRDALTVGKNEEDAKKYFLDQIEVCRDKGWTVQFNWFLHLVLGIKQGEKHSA

SMILES | IC50 (PI3Kγ [1]) | Gamma/Delta Ratio (PI3Kγ [1]) | EC50 (T cell proliferation) | Gamma/Delta Ratio (PI3Kγ [2]) | IC50 (PI3Kγ [2]) | EC50 (human neutrophils [3]; Neutrophil, fMLP (5 μM) gradient, 4 hr, FIG. 5, read-out: EC50 for inhibition of neutrophil migration) | EC50 (human neutrophils [3]; [6]) | IC50 (human neutrophils [4]; Neutrophil, 1.5 h, 1 μM fMLP, 90 min, FIG. 4, read-out: Concentration of half-maximal inhibition of fMLP-induced elastase exocytosis) | EC50 (human neutrophils [4]) | IC50 ([5]; anti-IgM 25 μg/mL, 3 days, [3H]-thymidine, FIG. 8, read-out: Concentration reducing anti-IgM-stimulated B cell proliferation to its half-maximal value) | EC50 [5] | Alpha/Delta Ratio (PI3Kα) | Beta/Delta Ratio (PI3Kβ)
O=c1c2ccccc2nc(CSc2ncnc3[nH]cnc23)n1-c1ccccc1Cl [Compound D-000, 3-(2-chlorophenyl)-2-(9H-purin-6-ylsulfanylmethyl)-3H-quinazolin-4-one] | 7.7 µM | 23 | 5.5 ± 4 µM | 18 | 35 ± 35 µM | ~1 µM | 1 to 5 µM | 2 to 3 µM | 2.2 ± 2 µM | ~1 µM | 0.9 ± 0.4 µM | 91 | 84
O=c1c2c(F)cccc2nc(CSc2ncnc3[nH]cnc23)n1-c1ccccc1Cl [Compound D-015, 3-(2-Chlorophenyl)-5-fluoro-2-(9H-purin-6-ylsulfanylmethyl)-3H-quinazolin-4-one] | 3.6 µM | 17 | 1.8 µM | 160 |  |  | 2 µM |  | 1.3 ± 0.4 µM |  | 1.2 ± 0.2 µM | 180 | 154
O=c1c2c(Cl)cccc2nc(CSc2ncnc3[nH]cnc23)n1-c1ccccc1Cl [Compound D-025, 5-Chloro-3-(2-chlorophenyl)-2-(9H-purin-6-ylsulfanylmethyl)-3H-quinazolin-4-one] | 1.5 µM | 14 | 4.4 ± 0.6 µM | 24 | 7.8 ± 3 µM |  | 0.3 ± 0.3 µM |  | 0.3 ± 0.2 µM |  | 0.3 ± 0.1 µM | 556 | 
O=c1c2ccccc2nc(CSc2ncnc3[nH]ncc23)n1-c1ccccc1Cl [Compound D-999, 3-(2-Chlorophenyl)-2-(1H-pyrazolo[3,4-d]pyrimidin-4-ylsulfanylmethyl)-3H-quinazolin-4-one, reference compound] | 60 µM | 1.3 | 5.9 µM | 1 | 90 µM |  | 1 µM |  | > 20 µM |  | 3.1 ± 0.7 µM | 2 | 2
